Reference: US12459931B2, “Benzothiophene derivative regulator, preparation method therefor and use thereof” (Shanghai Hansoh Biomedical Co., Ltd., priority 2019, dated 2025)

Target: D3 receptor (Homo sapiens (Human), UniProt P35462)
Test: Effect on cAMP content in cells stably expressing D3 receptors (CHO-D3)
Type: cell-based
Settings: forskolin stimulated, activation
Method: To determine the activation effect of the compounds on D3 receptor.
3. The experimental buffer (1*HBSS, 0.1% BSA, 20 mM HEPES and 500 μM IBMX) was prepared. The compound was diluted with the buffer. 2.5 μL of the compound solution was added to each well, and the plate was incubated at 37° C. for 10 minutes. The forskolin was diluted to 8 μM (8*) with the experimental buffer. […] The reaction plate was centrifuged at 200 g for 30 s at room temperature, and left to stand at 25° C. for 1 h. Data was collected using Envision.

Sequence of D3 receptor (P35462 whole entry): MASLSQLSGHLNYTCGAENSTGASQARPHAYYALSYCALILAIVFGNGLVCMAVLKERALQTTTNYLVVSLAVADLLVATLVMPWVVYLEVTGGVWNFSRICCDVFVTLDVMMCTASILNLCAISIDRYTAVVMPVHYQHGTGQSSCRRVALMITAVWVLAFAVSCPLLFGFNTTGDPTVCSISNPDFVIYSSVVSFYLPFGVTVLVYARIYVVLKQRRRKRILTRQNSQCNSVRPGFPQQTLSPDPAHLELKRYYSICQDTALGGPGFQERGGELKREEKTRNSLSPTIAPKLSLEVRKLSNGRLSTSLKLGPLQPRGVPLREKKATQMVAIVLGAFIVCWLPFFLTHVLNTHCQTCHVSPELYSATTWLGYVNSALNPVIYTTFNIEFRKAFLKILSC

With `O=C(N[C@H]1CC[C@H](CCN2CCN(c3cccc4sccc34)CC2)CC1)C1(O)CC1` [Example 42, N-(Trans-4-(2-(4-(benzo[b]thiophen-4-yl)piperazin-1-yl)ethyl)cyclohexyl)-1-hydroxycyclopropane-1-carboxamide] the EC50 was 1.1 nM.
